Data: ChEMBL document CHEMBL4610037, “Discovery of 5-(pyridin-3-yl)-1H-indole-4,7-diones as indoleamine 2,3-dioxygenase 1 (IDO1) inhibitors” (Bioorg Med Chem Lett, 2020)
Calls of active or inactive are those of the source. The rule behind the calls is not given here.

Columns and labels:
[1] = molecular target: T1, Indoleamine 2,3-dioxygenase 1 (Homo sapiens, UniProt P14902); test: Inhibition of recombinant human IDO1 expressed in Escherichia coli at 10 uM relative to control
Target sequence in this assay (P14902 whole entry, looked up): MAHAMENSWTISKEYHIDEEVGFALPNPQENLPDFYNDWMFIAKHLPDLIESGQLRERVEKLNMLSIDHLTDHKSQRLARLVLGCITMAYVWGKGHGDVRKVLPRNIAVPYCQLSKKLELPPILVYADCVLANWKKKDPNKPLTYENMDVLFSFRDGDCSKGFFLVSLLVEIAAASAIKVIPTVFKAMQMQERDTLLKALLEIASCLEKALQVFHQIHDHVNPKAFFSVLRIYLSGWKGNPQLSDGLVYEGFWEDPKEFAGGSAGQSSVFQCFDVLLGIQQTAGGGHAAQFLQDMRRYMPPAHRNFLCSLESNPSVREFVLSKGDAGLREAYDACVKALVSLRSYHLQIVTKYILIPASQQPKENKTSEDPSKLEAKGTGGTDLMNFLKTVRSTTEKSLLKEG

[2] = molecular target: T1, Indoleamine 2,3-dioxygenase 1; test: Competitive inhibition of recombinant human IDO1 expressed in Escherichia coli at 1 to 4 uM using L-tryptophan as substrate
Target sequence in this assay (P14902 whole entry, looked up): as above

[3] = molecular target: T1, Indoleamine 2,3-dioxygenase 1; test: Reversible inhibition of recombinant human IDO1 expressed in Escherichia coli at 100 uM using L-tryptophan as substrate
Target sequence in this assay (P14902 whole entry, looked up): as above

[4] = molecular target: T1, Indoleamine 2,3-dioxygenase 1; test: Inhibition of recombinant human IDO1 expressed in Escherichia coli
Target sequence in this assay (P14902 whole entry): as the sequence (P14902 whole entry, looked up) above

[5] = molecular target: T1, Indoleamine 2,3-dioxygenase 1; test: Inhibition of IFNgamma-stimulated IDO1 in human HeLa cells; format: cell-based
Target sequence in this assay (P14902 whole entry): as the sequence (P14902 whole entry, looked up) above

SMILES	inhibition [1] [%]	inhibition [2]	inhibition [3]	IC50 [4] [nM]	EC50 [5] [nM]
CC(C)(C)OC(=O)NCCc1c[nH]c2c1C(=O)C(c1cccnc1)=CC2=O	66.5	Active	Active	1900	5400
COc1ccc(C2=CC(=O)c3[nH]cc(CCNC(=O)OC(C)(C)C)c3C2=O)cc1	34.5				
CC(C)(C)CNCCc1c[nH]c2c1C(=O)C(c1cccnc1)=CC2=O	79.5			560	4530
O=C1C=C(c2cccnc2)C(=O)c2c(CCNCCc3ccccc3)c[nH]c21	68.3			4000	> 10000
CN(C)CCc1c[nH]c2c1C(=O)C(c1cccnc1)=CC2=O	71.3			500	4220
O=C1C=C(c2cccnc2)C(=O)c2c(CCNC3CCCCC3)c[nH]c21	65			1500	2540
CC(C)(C)OC(=O)NCCc1c[nH]c2c1C(=O)C(c1ccncc1)=CC2=O	12.4				
CC(C)(C)OC(=O)NCCc1c[nH]c2c1C(=O)C(c1ccccc1)=CC2=O	56.4			2940	
NCCc1c[nH]c2c1C(=O)C(c1cccnc1)=CC2=O	74.9			510	6620
CCCCNCCc1c[nH]c2c1C(=O)C(c1cccnc1)=CC2=O	79.2			880	2720
O=C1C=C(c2cccnc2)C(=O)c2c(CCNS(=O)(=O)c3ccccc3)c[nH]c21	59.7			3510	4920
CC(C)(C)OC(=O)NCCc1c[nH]c2c1C(=O)C(c1ccccc1F)=CC2=O	67.3			2090	
CC(C)(C)OC(=O)NCCc1c[nH]c2c1C(=O)C(c1ccc(F)cc1)=CC2=O	43.3				
Cc1ccc(C2=CC(=O)c3[nH]cc(CCNC(=O)OC(C)(C)C)c3C2=O)cc1	25.5				
COc1ccccc1C1=CC(=O)c2[nH]cc(CCNC(=O)OC(C)(C)C)c2C1=O	63.2			2380	
CCNCCc1c[nH]c2c1C(=O)C(c1cccnc1)=CC2=O	81.7			160	3580
CC(C)NCCc1c[nH]c2c1C(=O)C(c1cccnc1)=CC2=O	63.8			510	2600
O=C(NCCc1c[nH]c2c1C(=O)C(c1cccnc1)=CC2=O)c1ccccc1	65.7			2080	5090
CC(C)(C)C(=O)NCCc1c[nH]c2c1C(=O)C(c1cccnc1)=CC2=O	72.3			770	4600
CC(=O)NCCc1c[nH]c2c1C(=O)C(c1cccnc1)=CC2=O	57.5			1360	> 10000
CCN(CC)CCc1c[nH]c2c1C(=O)C(c1cccnc1)=CC2=O	64.2			2260	> 10000
